Results published in ChEMBL document CHEMBL1135097, “New readily accessible peroxides with high anti-malarial potency” (Bioorg Med Chem Lett, 2002).

Tests used:
KB 3-1 = test: Compound was tested for cytotoxicity against human epidermoid carcinoma KB 3-1; assay type: functional, cell-based
Plasmodium falciparum = test: Antimalarial activity against Plasmodium falciparum; assay type: functional, organism-based
[1] = (§1) Selective toxicity index between parasite and cells of host-animals, human epidermoid carcinoma KB 3-1; assay type: organism-based; settings: KB 3-1 human epidermoid carcinoma cells
Homo sapiens = species on record: Homo sapiens; test: as §1; assay type: organism-based

Compound	IC50 (KB 3-1; Homo sapiens, KB 3-1) [nM]	IC50 (Plasmodium falciparum; Plasmodium falciparum) [nM]	selectivity ratio [1]	Ratio (Homo sapiens)	IC50 (KB 3-1; kb 3-1) [nM]	IC50 (Plasmodium falciparum) [nM]
COC(=O)CC1CCC(C)(OC)OO1 (centres undefined)	> 490	> 2400				
CCCCC[C@]1(OC)CC[C@@H](CC(=O)OC)OO1	53000	150	350			
CC/C=C/C=C/CC[C@]1(OC)CC[C@H]([C@@H](C)C(=O)OC)OO1	28000	120	230			
CCCCC[C@]1(OC)CC[C@H](CC(=O)OC)OO1	23000	150	150			
CCCCCCCCCC1(OC)CCC(CC(=O)OC)OO1 (centres undefined)	4400	140	31			
CCCCCCCCC[C@]1(OC)CC[C@@H](CC(=O)OC)OO1	4400	170	26			
CCCCCCCCC[C@]1(OC)CC[C@H](CC(=O)OC)OO1 (relative stereo)	2200	260	8			
CC/C=C/C=C/CC[C@]1(OC)CC[C@@H](C(C)C(=O)OC)OO1 (single isomer, unassigned)	21000	150	140			
CCCCCC1(OC)CCC(CC(=O)OC)OO1 (single isomer, unassigned; (+))				350	77000	220
CCCCCC1(OC)CCC(CC(=O)OC)OO1 (single isomer, unassigned; (-))				370	82000	
CCCCCC1(OC)CCC(CC(=O)OC)OO1 (stereo in doubt; 5)	43000	120	360			
CCCCCCCCCCCCCCCC[C@@]1(OC)C=C[C@@H](CC(=O)OC)OO1 [CHONDRILLIN]	630	> 240	< 2.6			
